Measured values: publication PMC3130785, “Small Compound 6-O-Angeloylplenolin Induces Mitotic Arrest and Exhibits Therapeutic Potentials in Multiple Myeloma” (PLoS ONE, 2011)

Experiments:
[1] = system: Staphylococcus aureus; parameters: method as in PMID 9461679, PMID 8657743, PMID 12521264; settings: cited from earlier work
[2] = system: Bacillus subtilis; parameters: method as in PMID 9461679, PMID 8657743, PMID 12521264; settings: cited from earlier work
[3] = system: pERK1/2; experiment: Western blotting, 6-OAP/BOR; assay type: cell-based, human; settings: MM.1S; BOR 3 nM for 12 to 24 h with 6-OAP 5 µM
Procedure: Cell pellets were lysed in RIPA buffer containing 50 mM Tris pH 8.0, 150 mM NaCl, 0.1% SDS, 0.5% deoxycholate, 1% NP-40, 1 mM DTT, 1 mM NaF, 1 mM sodium vanadate, and protease inhibitors cocktail (Sigma). For immunoprecipitations, cells were lysed on ice for 15 minutes in RIPA buffer. Lysates were centrifuged. The supernatant was incubated with indicated antibodies overnight, after which protein A/G Plus beads (Santa Cruz Biotechnology) were added and incubated for 3 h. The beads were washed 4 times in RIPA buffer. Then the beads were resuspended in 1× sample buffer and boiled for 3 min. Protein extracts were quantitated and loaded on 8% to 12% sodium dodecyl sulfate polyacrylamide gel, electrophoresed, and transferred to a nitrocellulose membrane (Whatman). The membrane was incubated with primary antibody, washed, and incubated with horseradish peroxidase (HRP)–conjugated secondary antibody (Pierce). Detection was performed by using a chemiluminescent western detection kit (Cell Signaling). […]

[4] = system: MM.1R cells; experiment: MTT assay, Dex with or without 6-OAP; assay type: cell-based, human; settings: Dex 1 to 2 µM alone, 48 h, MTT
Procedure: U266, RPMI 8226 cells (1×10^4), primary CD138+ cells, PBMCs (5×10^4), and BMSCs (1×10^4) were cultured in 96-well dishes and incubated without or with 6-OAP at indicated concentration for 48 h. MM.1S and MM.1R cells (2×10^4) were seeded into 96-well dishes and pre-cultured for 24 h, then treated with 6-OAP for 48 h. Cell proliferation was determined by MTT assay. Cell viability was estimated by trypan blue dye exclusion.
Figure 4 6-OAP enhances cytotoxicity of Dox, Dex and BOR to MM cells. (A through C) MM.1S cells were treated for 48 h with Dox (A), Dex (B) or BOR (C) in the presence or absence of 6-OAP at 5 µM. MTT assay was used to test the proliferation of MM.1S cells. (D) MM.1R cells were treated for 48 h with Dex in the presence or absence of 6-OAP at 7.5 µM. MTT assay was used to test the proliferation of MM.1R cells. *p<.001,** p<.05. (E) MM.1S cells were cultured with control media (con), 6-OAP (O, 5 µM), BOR (B, 3 nM), or 6-OAP (5 µM) plus BOR (3 nM) (OB) for indicated time points. Cells were then lysed and subjected to Western blotting using indicated antibodies. CF, cleavage fragment.

Row | Compound | antibacterial activity [1] | antibacterial activity [2] | 6-OAP-induced pERK1/2 upregulation [3] | inhibition of cell proliferation [4]
1 | CC(C)C(=O)OC1C2C(CC(C)C3C=CC(=O)C31C)OC(=O)C2C (stereo not drawn) [6-O-isobutyroylplenolin] | exhibit antibacterial activity | exhibit antibacterial activity | – | –
2 | C=C(C)C(=O)OC1C2C(CC(C)C3C=CC(=O)C31C)OC(=O)C2C (stereo not drawn) [6-O-methylacrylylplenolin] | exhibit antibacterial activity | exhibit antibacterial activity | – | –
3 | CC(C)C[C@H](NC(=O)[C@H](Cc1ccccc1)NC(=O)c1cnccn1)B(O)O [BOR, bortezomib, reference compound] | – | – | dramatically inhibited 6-OAP-induced pERK1/2 upregulation | –
4 | C[C@@H]1C[C@H]2[C@@H]3CCC4=CC(=O)C=C[C@]4(C)[C@@]3(F)[C@@H](O)C[C@]2(C)[C@@]1(O)C(=O)CO [Dex, Dexamethasone, reference compound] | – | – | – | slight inhibition rate
